Test results from patent US10899699B2, “Vinylogous phenethylamines as neurotransmitter releasers” (RESEARCH TRIANGLE INSTITUTE, priority 2016, dated 2021).
Where a name gives a salt, the structure may show the parent alone. Read-outs that look alike come from different tables or passages of the source.

How the values were obtained:
[1] = molecular target: T1, Dopamine Transporter (DAT) (Rattus norvegicus, UniProt P23977); assay: DAT release assay, rat brain synaptosomes; type: biochemical; details: for EC50: release of [3H]MPP+ from rat striatum synaptosomes, mean±SD (n=3)
T1 construct: Synaptosomes were prepared from rat striatum for the DAT assays; from tissue; host or cells: rat striatum synaptosomes
T1 sequence (P23977 whole entry): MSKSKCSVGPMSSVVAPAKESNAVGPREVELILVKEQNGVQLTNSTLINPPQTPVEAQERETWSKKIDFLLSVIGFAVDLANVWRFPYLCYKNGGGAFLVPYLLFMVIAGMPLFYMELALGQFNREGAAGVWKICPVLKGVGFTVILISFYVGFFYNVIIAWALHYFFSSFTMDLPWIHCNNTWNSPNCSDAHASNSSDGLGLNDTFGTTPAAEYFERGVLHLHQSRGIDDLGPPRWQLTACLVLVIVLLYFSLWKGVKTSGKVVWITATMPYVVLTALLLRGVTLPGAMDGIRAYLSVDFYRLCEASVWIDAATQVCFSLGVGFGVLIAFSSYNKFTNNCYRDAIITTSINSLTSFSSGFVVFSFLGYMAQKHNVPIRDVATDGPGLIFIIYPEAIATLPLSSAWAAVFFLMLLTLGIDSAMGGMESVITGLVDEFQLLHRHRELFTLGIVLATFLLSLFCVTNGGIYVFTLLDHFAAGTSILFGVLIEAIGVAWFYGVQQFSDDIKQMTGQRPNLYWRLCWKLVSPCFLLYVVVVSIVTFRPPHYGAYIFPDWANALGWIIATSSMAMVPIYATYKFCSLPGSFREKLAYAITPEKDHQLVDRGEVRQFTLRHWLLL
Experimental: (§1) BAT activity was measured using synaptosomes prepared from rat brain homogenates according to the protocol developed by Rothman and co-workers (Rothman, et al., Eur. J. Pharmacol. 2002, 447(1), 51). Compounds were first screened in uptake inhibition and release assays to determine the exact mode of drug action. […] Substrate reversal experiments were conducted to validate substrate activity. The analogs were also tested for agonist activity at the serotonin-2 receptor subtypes (5-HT2A, 5-HT2B, 5-HT2C) using in vitro calcium mobilization assays in transfected HEK293 cells as previously described. These receptors are associated with the pharmacology of abused drugs, as 5-HT2A agonists are thought to be hallucinogenic while […] are associated with valvular heart disease and pulmonary hypertension; activity at these receptors would be considered off-target liabilities. On the other hand, agonists at 5-HT2C may be beneficial as potential pharmacotherapies for drug abuse and appetite suppression.
(§2) All animal studies were conducted in facilities fully accredited by the Association for the Assessment and Accreditation of Laboratory Animal Care (AAALAC) and experiments were performed in accordance with the Institutional Care and Use Committee (IACUC) of the National Institute on Drug Abuse Intramural Research Program (NIDA IRP). Rats were euthanized by CO2 narcosis, and brains were processed to yield synaptosomes as previously described (Rothman, R B, et al., Eur. J. Pharmacol. 2002, 447(1), 51.). Synaptosomes were prepared from rat striatum for the DAT assays, whereas synaptosomes were prepared from whole brain minus striatum and cerebellum for the NET and SERT assays.
(§3) For release assays, 9 nM [^3H]1-methyl-4-phenylpyridinium ([^3H]MPP+) was used as the radiolabeled substrate for DAT and NET, while 5 nM [^3H]5-HT was used as a substrate for SERT. All buffers used in the release assay methods contained 1 μM reserpine to block vesicular uptake of substrates. The selectivity of release assays was optimized for a single transporter by including unlabeled blockers to prevent the uptake of [^3H]MPP+ or [^3H]5-HT by competing transporters. Synaptosomes were preloaded with radiolabeled substrate in Krebs-phosphate buffer for 1 h (steady state). Release assays were initiated by adding 850 μL of preloaded synaptosomes to 150 μL of test drug. Release was terminated by vacuum filtration and retained radioactivity was quantified as described for uptake inhibition. Concentration-response curves were generated to yield EC50 values.
(§4) Substrate reversal experiments were conducted to validate substrate activity. The releasing ability of test compounds was tested at an EC80 concentration in the absence and presence of an uptake inhibitor (250 nM […] for DAT, 166 nM desipramine for NET, 100 nM fluoxetine for SERT).

[2] = molecular target: T2, Serotonin Transporter (SERT) (Rattus norvegicus, UniProt P31652); assay: SERT release assay, rat brain synaptosomes; type: biochemical; details: for EC50: release of [3H]5-HT from rat brain synaptosomes, mean±SD (n=3)
T2 construct: synaptosomes were prepared from whole brain minus striatum and cerebellum for the NET and SERT assays; from tissue; host or cells: rat whole brain minus striatum and cerebellum, synaptosomes
T2 sequence (P31652 whole entry): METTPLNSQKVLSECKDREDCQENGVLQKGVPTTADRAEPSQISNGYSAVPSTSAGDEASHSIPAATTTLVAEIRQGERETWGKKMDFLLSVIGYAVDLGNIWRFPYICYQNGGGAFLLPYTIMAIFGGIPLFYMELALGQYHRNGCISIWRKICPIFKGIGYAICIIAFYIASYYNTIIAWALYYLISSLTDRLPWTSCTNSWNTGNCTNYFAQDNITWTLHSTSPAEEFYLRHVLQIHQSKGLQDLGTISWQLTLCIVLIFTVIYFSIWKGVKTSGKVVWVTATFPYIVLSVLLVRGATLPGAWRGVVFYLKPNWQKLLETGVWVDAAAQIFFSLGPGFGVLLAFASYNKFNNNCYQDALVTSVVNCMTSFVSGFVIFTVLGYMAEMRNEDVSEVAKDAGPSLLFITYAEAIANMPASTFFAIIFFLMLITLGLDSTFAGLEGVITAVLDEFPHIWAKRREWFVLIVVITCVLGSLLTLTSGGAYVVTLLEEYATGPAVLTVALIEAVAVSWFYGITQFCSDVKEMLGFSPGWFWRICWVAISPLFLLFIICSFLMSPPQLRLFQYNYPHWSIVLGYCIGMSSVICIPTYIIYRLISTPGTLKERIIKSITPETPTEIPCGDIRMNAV
Experimental: as §1, §2, §3, §4

[3] = molecular target: Norepinephrine Transporter (NET) (Rattus norvegicus, UniProt Q9WTR4); type: biochemical; details: read-out: EC50, (nM ± SD) NET; release of [3H]MPP+ from rat brain synaptosomes; mean±SD (n=3)
[4] = molecular target: T3, human 5-HT2A receptor (Homo sapiens, UniProt P28223); assay: 5-HT2A calcium mobilization assay in HEK293 cells (agonist activity); type: cell-based; details: for EC50 / Emax: calcium mobilization; for Emax: efficacy
T3 construct: expressed in transfected cells
T3 sequence (P28223 whole entry): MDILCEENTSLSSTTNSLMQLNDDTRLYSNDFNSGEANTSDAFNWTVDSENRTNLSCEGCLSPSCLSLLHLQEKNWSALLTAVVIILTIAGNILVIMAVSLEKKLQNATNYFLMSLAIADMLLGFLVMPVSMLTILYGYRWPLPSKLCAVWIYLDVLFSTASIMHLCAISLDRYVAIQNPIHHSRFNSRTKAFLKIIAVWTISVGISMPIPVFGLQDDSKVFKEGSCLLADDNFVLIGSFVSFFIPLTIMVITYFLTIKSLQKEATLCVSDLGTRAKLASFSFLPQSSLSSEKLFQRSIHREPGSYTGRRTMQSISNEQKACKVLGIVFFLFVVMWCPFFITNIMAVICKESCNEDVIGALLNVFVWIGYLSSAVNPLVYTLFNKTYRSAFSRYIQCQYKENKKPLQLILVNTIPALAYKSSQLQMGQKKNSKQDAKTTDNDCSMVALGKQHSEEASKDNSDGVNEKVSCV
Experimental: (§5) BAT activity was measured using synaptosomes prepared from rat brain homogenates according to the protocol developed by Rothman and co-workers (Rothman, et al., Eur. J. Pharmacol. 2002, 447(1), 51). Compounds were first screened in uptake inhibition and release assays to determine the exact mode of drug action. Compounds active in both assays are releasers while compounds active only in the uptake inhibition assay are uptake inhibitors. Active compounds were then fully characterized by running 8-point concentration response curves in the assay corresponding to their mechanism of action. Substrate reversal experiments were conducted to validate substrate activity. The analogs were also tested for agonist activity at the serotonin-2 receptor subtypes (5-HT2A, 5-HT2B, 5-HT2C) using in vitro calcium mobilization assays in transfected HEK293 cells as previously described. These receptors are associated with the pharmacology of abused drugs, as 5-HT2A agonists are thought to be hallucinogenic while […] are associated with valvular heart disease and pulmonary hypertension; activity at these receptors would be considered off-target liabilities. On the other hand, agonists at 5-HT2C may be beneficial as potential pharmacotherapies for drug abuse and appetite suppression.
(§6) HEK293 cells stably expressing the human 5-HT2A receptor were used. The day before the assay, cells were plated into 96-well black-walled assay plates at 40,000 cells/well in DMEM-HG supplemented with 10% fetal bovine serum, 100 units of penicillin and streptomycin, and 15 mM HEPES. The cells were incubated overnight at 37° C., 5% CO2. Prior to the assay, Calcium 5 dye (Molecular Devices) was reconstituted according to the manufacturer instructions. The reconstituted dye was diluted 1:40 in pre-warmed (37° C.) assay buffer (1×HBSS, 20 mM HEPES, 2.5 mM probenecid, pH 7.4 at 37° C.). Growth medium was removed and the cells were gently washed with 100 μL of pre-warmed (37° C.) assay buffer. The cells were incubated for 45 minutes at 37° C., 5% CO2 in 200 μL of the diluted Calcium 5 dye. Serial dilutions of the test compounds were prepared in 1% DMSO/assay buffer, aliquoted into 96-well polypropylene plates, and warmed to 37° C. After the dye-loading incubation period, the cells were pre-treated with 25 μL of 9% DMSO/assay buffer and incubated for 15 min at 37° C. After the pre-treatment incubation period, the plate was read with a FlexStation® II (Molecular Devices). Calcium-mediated changes in fluorescence were monitored every 1.52 seconds over a 60 second time period, with the FlexStation® II adding 25 μL of test compound dilutions at the 19 second time point (excitation at 485 nm, detection at 525 nm). Peak kinetic reduction (SoftMax, Molecular Devices) relative fluorescent units (RFU) were plotted against compound concentration. Data were fit to the appropriate three-parameter logistic curve to generate EC50 values (GraphPad Prism 6.0, GraphPad Software, Inc., San Diego, Calif.). 5-HT2B and 5-HT2C calcium mobilization assays were run in the same manner with stable 5-HT2B and 5-HT2C HEK293 cells except that 35,000 cells/well were used instead of 40,000 cells/well.

[5] = molecular target: T4, 5-HT2B (Homo sapiens, UniProt P41595); assay: 5-HT2B calcium mobilization assay in HEK293 cells (agonist activity); type: cell-based; details: calcium mobilization, agonist, HEK293; read-out: 5-HT2B EC50, (nM ± SEM)
T4 construct: expressed in transfected cells
T4 sequence (P41595 whole entry): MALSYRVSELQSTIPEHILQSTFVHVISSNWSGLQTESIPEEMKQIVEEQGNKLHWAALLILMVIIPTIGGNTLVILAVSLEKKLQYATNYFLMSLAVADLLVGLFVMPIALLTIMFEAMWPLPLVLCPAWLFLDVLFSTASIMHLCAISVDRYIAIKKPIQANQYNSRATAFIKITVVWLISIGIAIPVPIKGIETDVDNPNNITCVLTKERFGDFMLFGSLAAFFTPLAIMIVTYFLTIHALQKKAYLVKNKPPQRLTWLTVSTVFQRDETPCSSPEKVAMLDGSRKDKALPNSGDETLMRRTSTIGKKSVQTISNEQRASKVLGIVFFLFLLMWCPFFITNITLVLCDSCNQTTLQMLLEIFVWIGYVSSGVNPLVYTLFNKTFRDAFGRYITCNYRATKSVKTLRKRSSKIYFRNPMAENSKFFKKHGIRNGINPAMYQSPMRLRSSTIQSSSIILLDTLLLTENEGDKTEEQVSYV
Experimental: as §5, §6

[6] = molecular target: T5, 5-HT2C (Homo sapiens, UniProt P28335); assay: 5-HT2C calcium mobilization assay in HEK293 cells (agonist activity); type: cell-based; details: HEK293; for EC50: calcium mobilization, agonist, read-out: 5-HT2C EC50, (nM ± SEM); for Emax at 10 µM: read-out: 5-HT2C activity relative to the control 5-HT EMAX
T5 construct: expressed in transfected cells
T5 sequence (P28335 33-458): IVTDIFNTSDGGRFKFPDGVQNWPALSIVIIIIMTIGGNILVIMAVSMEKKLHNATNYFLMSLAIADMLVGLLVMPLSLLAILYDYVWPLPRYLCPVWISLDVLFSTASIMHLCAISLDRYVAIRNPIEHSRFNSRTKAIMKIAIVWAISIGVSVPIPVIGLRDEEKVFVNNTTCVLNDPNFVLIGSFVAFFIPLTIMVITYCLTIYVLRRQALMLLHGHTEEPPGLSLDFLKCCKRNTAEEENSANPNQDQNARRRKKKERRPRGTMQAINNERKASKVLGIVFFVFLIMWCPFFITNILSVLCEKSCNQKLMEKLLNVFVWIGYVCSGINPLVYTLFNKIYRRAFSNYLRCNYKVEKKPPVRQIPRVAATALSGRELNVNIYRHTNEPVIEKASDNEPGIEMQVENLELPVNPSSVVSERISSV
Experimental: as §5, §6

[7] = agonist, HEK293, read-out: 5-HT2A EC50, (nM ± SEM)

Row | Compound | melting point | EC50 [1] | EC50 [2] | EC50 [3] | EC50 [5] | EC50 [6] | further results
1 | C[C@@H](N)CC#Cc1ccccc1 (as salt: hydrochloride) [R-4, (1R)-1-Methyl-4-phenyl-but-3-ynylamine] | 143 to 144 °C |  |  |  |  |  | 
2 | C[C@H](N)C/C=C\c1ccccc1 (as salt: hydrochloride) [S-8, (1S,3Z)-1-Methyl-4-phenyl-but-3-enylamine] | 83 to 84 °C |  |  |  |  |  | 
3 | C[C@H](N)C/C=C/c1ccccc1 (as salt: hydrochloride) [S-6, (1S,3E)-1-Methyl-4-phenyl-but-3-enylamine] | 172 to 173 °C |  |  |  |  |  | 
4 | C[C@@H](N)C/C=C\c1ccccc1 (as salt: hydrochloride) [R-8, (1R,3Z)-1-Methyl-4-phenyl-but-3-enylamine] | 83 to 84 °C |  |  |  |  |  | 
5 | C[C@@H](N)C/C=C/c1ccccc1 (as salt: hydrochloride) [R-6, (1R,3E)-1-Methyl-4-phenyl-but-3-enylamine] | 172 to 174 °C |  |  |  |  |  | 
6 | CC(N)/C=C\c1ccccc1 (centres unmarked) (as salt: hydrochloride) [compound 11, (2Z)-1-Methyl-3-phenyl-prop-2-enylamine] | 149 to 151 °C |  |  |  |  |  | 
7 | C[C@H](N)CC#Cc1ccccc1 (as salt: hydrochloride) [S-4, (1S)-1-Methyl-4-phenyl-but-3-ynylamine] | 141 to 142 °C |  |  |  |  |  | 
8 | CC(N)CC#Cc1ccccc1 (racemic) [compound 4, 1-Methyl-4-phenyl-but-3-ynylamine] |  | 997 nM | 384 ± 110 nM | 2980 nM | > 10000 nM | > 10000 nM | potency at releasing DA compared to NE [1]: 3 fold; selectivity for releasing 5-HT compared to DA, given as fold more potent at the DAT [1]: 2.6 fold; EC50 [4, 7]: > 10000 nM; EC50 ([4]; read-out: 5-HT2A EC50): > 10000 nM
9 | C[C@H](N)C/C=C\c1ccccc1 [S-8, (1S,3Z)-1-Methyl-4-phenyl-but-3-enylamine] |  | 304 nM | 863 ± 86 nM | 170 nM | > 10000 nM |  | potency for releasing DA relative to 5-HT [1]: 2.2 fold; Emax ([4]; HEK293): 102%; EC50 [4, 7]: 1600 nM; Emax at 10 µM [6]: < 50%
10 | CC(N)CC#Cc1ccccc1 (racemic) (as salt: hydrochloride) [compound 4, 1-Methyl-4-phenyl-but-3-ynylamine] | 131 to 132 °C |  |  |  |  |  | 
11 | CC(N)C/C=C/c1ccccc1 (racemic) (as salt: hydrochloride) [compound 6, (3E)-1-Methyl-4-phenyl-but-3-enylamine] | 147 to 148 °C |  |  |  |  |  | 
12 | CC(N)C/C=C\c1ccccc1 (racemic) (as salt: hydrochloride) [compound 8, (3Z)-1-Methyl-4-phenyl-but-3-enylamine] | 115 to 117 °C |  |  |  |  |  | 
13 | CC(N)C/C=C\c1ccccc1 (racemic) [compound 8, (3Z)-1-Methyl-4-phenyl-but-3-enylamine] |  | 900 ± 100 nM | 646 nM | 621 ± 190 nM | > 10000 nM | > 10000 nM | potency for releasing 5-HT relative to DA (SERT/DAT selectivity) [2]: 1.4 fold; Emax ([4]; HEK293): 90%; EC50 [4, 7]: 1860 nM; Emax at 10 µM [6]: < 50%
14 | C[C@@H](N)C/C=C/c1ccccc1 [R-6, (1R,3E)-1-Methyl-4-phenyl-but-3-enylamine] |  | 540 nM | 109 ± 29 nM | 279 ± 24 nM | > 10000 nM | > 10000 nM | 
15 | CC(N)/C=C/c1ccccc1 (centres unmarked) (as salt: hydrochloride) [compound 10, (2E)-1-Methyl-3-phenyl-prop-2-enylamine] | 151 to 152 °C |  |  |  |  |  | 
16 | CC(N)C/C=C/c1ccccc1 (racemic) [compound 6, (3E)-1-Methyl-4-phenyl-but-3-enylamine] |  | 272 ± 44 nM | 54 ± 8 nM | 239 ± 59 nM | > 10000 nM | > 10000 nM | fold reduction in potency at 5-HT2A compared to 8 [4]: 3 fold; Emax ([4]; HEK293): ~80%; EC50 [4, 7]: 5620 ± 1700 nM
17 | C[C@H](N)CC#Cc1ccccc1 [S-4, (1S)-1-Methyl-4-phenyl-but-3-ynylamine] |  | 443 nM | 756 ± 79 nM | 784 ± 190 nM | > 10000 nM | > 10000 nM | potency for releasing 5-HT relative to DA (SERT/DAT selectivity) [2]: essentially equipotent; fold reduction in potency at 5-HT2A compared to 8 [4]: 2.7 fold; Emax ([4]; HEK293): ~80%; EC50 [4, 7]: 4950 ± 1400 nM
18 | C[C@@H](N)CC#Cc1ccccc1 [R-4, (1R)-1-Methyl-4-phenyl-but-3-ynylamine] |  | 660 ± 190 nM | 288 nM | 496 nM | > 10000 nM | > 10000 nM | selectivity for releasing 5-HT compared to DA, given as fold more potent at the DAT [1]: 2.3 fold
